# From patent US9085603B2, “Progesterone receptor antagonists” (Bayer Intellectual Property GmbH, priority 2010, dated 2015)
# Tests used:
# [1] = target: T1, human progesterone receptor B (Homo sapiens, UniProt P06401); experiment: Progesterone receptor antagonistic effect in stably transfected SK-N-MC cells, MTV-LUC reporter (PR-B); assay type: cell-based; settings: antagonism of 0.1 nmol/l promegestone, luciferase reporter, 24 hours
# T1 construct: expressed in transfected cells; host or cells: SK-N-MC human neuroblastoma cells, stably transfected with pRChPR-B-neo and pMMTV-LUC
# T1 sequence (P06401 1-933): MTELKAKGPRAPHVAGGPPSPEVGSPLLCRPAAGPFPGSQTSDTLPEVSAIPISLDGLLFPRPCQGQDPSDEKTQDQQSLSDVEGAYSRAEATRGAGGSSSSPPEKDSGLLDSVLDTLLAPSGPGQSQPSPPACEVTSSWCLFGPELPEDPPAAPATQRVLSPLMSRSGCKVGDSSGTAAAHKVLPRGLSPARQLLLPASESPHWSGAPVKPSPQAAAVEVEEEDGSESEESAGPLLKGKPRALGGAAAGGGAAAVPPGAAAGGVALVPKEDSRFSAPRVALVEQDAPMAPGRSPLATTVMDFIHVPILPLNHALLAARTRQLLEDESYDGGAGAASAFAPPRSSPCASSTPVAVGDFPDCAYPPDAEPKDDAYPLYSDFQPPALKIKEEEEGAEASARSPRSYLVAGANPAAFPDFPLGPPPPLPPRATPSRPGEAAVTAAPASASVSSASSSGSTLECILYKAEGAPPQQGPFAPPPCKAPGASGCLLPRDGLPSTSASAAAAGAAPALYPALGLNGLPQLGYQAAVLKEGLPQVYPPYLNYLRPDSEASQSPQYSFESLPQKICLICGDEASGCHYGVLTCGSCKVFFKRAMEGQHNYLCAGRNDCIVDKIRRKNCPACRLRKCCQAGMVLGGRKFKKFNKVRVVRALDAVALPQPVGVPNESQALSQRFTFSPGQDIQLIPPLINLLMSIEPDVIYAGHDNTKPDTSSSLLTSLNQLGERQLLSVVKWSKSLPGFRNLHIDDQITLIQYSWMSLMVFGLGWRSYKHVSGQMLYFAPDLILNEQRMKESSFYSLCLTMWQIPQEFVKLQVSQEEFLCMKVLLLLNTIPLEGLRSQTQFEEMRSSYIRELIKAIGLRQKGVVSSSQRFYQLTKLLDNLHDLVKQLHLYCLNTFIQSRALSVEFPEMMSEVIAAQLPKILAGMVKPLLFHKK
# Description: Progesterone Receptor Antagonistic Effect in Stable Transfectants of Human Neuroblastoma Cells (SK-N-MC cells) with the Human Progesterone A or Progesterone B Receptor and a MTV-LUC Reporter Construct
# SK-N-MC cells (human neuroblastoma cells), which have been stably transfected with plasmids which express the human progesterone receptor B (pRChPR-B-neo) or the human progesterone receptor A (pRChPR-A-neo) and a reporter construct (pMMTV-LUC), were incubated for 24 hours either in the absence (negative control) or in the presence of increasing amounts of the particular test compound (0.01 nmol/l, 0.1 nmol/l, 1 nmol/l, 10 nmol/l, 100 nmol/l and 1 μmol/l) in order to determine the agonistic efficacy. As a positive control of the reporter gene induction, the cells were treated with the synthetic gestagen promegestone (0.01 nmol/l, 0.1 nmol/l, 1 nmol/l, 10 nmol/l, 100 nmol/l and 1 μmol/l). To determine the antagonistic activity, the cells were treated with 0.1 nmol/l of promegestone and additionally with increasing amounts of the particular test compound (0.01 nmol/l, 0.1 nmol/l, 1 nmol/l, 10 nmol/l, 100 nmol/l and 1 μmol/l). The activity of the reporter gene LUC (LUC=luciferase) was determined in the cell lysates and measured as RLU (relative light units). All measurement values are given as percentage efficacy and as EC50 or IC50 concentrations.
# [2] = target: T2, human progesterone receptor A (Homo sapiens, UniProt P06401); experiment: Progesterone receptor antagonistic effect in stably transfected SK-N-MC cells, MTV-LUC reporter (PR-A); assay type: cell-based; settings: antagonism of 0.1 nmol/l promegestone, luciferase reporter, 24 hours
# T2 construct: expressed in transfected cells; host or cells: SK-N-MC human neuroblastoma cells, stably transfected with pRChPR-A-neo and pMMTV-LUC
# T2 sequence (P06401 1-769 isoform P06401-2): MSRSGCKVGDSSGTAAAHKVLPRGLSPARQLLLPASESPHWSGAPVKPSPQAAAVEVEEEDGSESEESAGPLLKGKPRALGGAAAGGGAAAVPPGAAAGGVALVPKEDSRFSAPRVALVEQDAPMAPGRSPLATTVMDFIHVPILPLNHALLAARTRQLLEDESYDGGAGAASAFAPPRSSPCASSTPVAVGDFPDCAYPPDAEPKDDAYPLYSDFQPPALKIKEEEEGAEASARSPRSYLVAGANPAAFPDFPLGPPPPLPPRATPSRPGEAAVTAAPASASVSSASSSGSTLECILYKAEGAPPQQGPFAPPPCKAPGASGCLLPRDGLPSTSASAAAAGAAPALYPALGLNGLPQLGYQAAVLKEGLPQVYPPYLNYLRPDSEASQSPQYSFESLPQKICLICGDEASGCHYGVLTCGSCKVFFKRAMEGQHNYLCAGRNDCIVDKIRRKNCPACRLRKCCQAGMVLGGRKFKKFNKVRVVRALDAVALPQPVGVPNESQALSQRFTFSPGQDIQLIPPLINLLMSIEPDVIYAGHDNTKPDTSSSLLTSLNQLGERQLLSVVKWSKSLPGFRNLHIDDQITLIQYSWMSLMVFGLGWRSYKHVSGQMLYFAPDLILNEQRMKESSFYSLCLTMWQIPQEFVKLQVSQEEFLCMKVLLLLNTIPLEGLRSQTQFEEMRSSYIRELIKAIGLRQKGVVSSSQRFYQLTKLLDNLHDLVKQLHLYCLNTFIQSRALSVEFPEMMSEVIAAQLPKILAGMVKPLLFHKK
# How it was run: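 Stably transfected SK-N-MC cells with PR-A or PR-B and MMTV-LUC reporter, treated 24 h with 0.1 nmol/l promegestone plus test compound at 0.01 nmol/l–1 μmol/l. Luciferase in cell lysates read as RLU; values given as percentage efficacy and IC50.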
# [3] = test system: pregnant rats; experiment: Abortive test on female rats (termination of early pregnancy); assay type: in vivo, rat; settings: for Abortion rate: d5-d7 p.c., autopsy d9 p.c.; for In vivo properties in preclinical tests: not further specified
# Description: The antagonistic effect of the compounds according to the invention was tested on pregnant rats (6 rats per group) on day (d) 5 to 7 post coitum (p.c.) under conventional keeping and feeding conditions.
# After successful pairing, the pregnant animals (presence of sperm in the vaginal smear on day 1 of the pregnancy=d1 p.c.) were randomized and divided into the treatment group and the control group. The animals were then given, subcutaneously or orally, in each case 0.15; 0.5; 1.5 or 5 mg/kg of the test compound or […] of vehicle (benzyl benzoate/ricinus oil: 1+4 [v/v]) daily from day 5 to day 7 (d5-d7 p.c.).
# The autopsy was carried out on day 9 (d9 p.c.). As the parameter of the progesterone receptor antagonistic effect, the uterus was investigated with regard to the presence of nidation sites. Here, the complete lack of nidation sites, but also the presence of pathological, haemmorhagic or otherwise abnormal nidation sites, on day 9 (d9 p.c.) was evaluated as an abortion.
# [4] = cited from earlier work
# [5] = test system: uterus fibroids; settings: several clinical studies; cited from earlier work
structure (smiles),measurement,setting,value
"C[C@]12C[C@H](c3ccc(CN4CCN(S(C)(=O)=O)CC4)cc3)C3=C4CCC(=O)C=C4CC[C@H]3[C@@H]1CC[C@@]2(O)C(F)(F)C(F)(F)F [Example 12, (11β,17β)-17-Hydroxy-11-(4-{[4-(methylsulphonyl)piperazin-1-yl]methyl}phenyl)-17-(pentafluoroethyl)estra-4,9-dien-3-one]",IC50,[1],0.1 nM
same,IC50,[2],0.17 nM
same,Abortion rate,[3]; daily dose 0.5 mg/kg p.o.,100%
same,Abortion rate,[3]; daily dose 1.5 mg/kg p.o.,100%
same,Abortion rate,[3]; daily dose 5.0 mg/kg p.o.,100%
same,In vivo properties in preclinical tests,[3],exceptional in vivo properties
"CC(=O)N1CCN(Cc2ccc([C@H]3C[C@@]4(C)C(CC[C@@]4(O)C(F)(F)C(F)(F)F)C4CCC5=CC(=O)CCC5=C43)cc2)CC1 (stereo partly drawn) [Example 11, (11β,17β)-11-{4-[(4-Acetylpiperazin-1-yl)methyl]phenyl}-17-hydroxy-17-(pentafluoroethyl)estra-4,9-dien-3-one]",IC50,[1],0.095 nM
same,IC50,[2],0.095 nM
same,Abortion rate,[3]; daily dose 0.5 mg/kg p.o.,100%
same,Abortion rate,[3]; daily dose 1.5 mg/kg p.o.,100%
same,Abortion rate,[3]; daily dose 5.0 mg/kg p.o.,100%
same,In vivo properties in preclinical tests,[3],exceptional in vivo properties
COCC(=O)[C@@]1(OC(C)=O)CC[C@H]2[C@@H]3CCC4=CC(=O)CCC4=C3[C@@H](c3ccc(N(C)C)cc3)C[C@@]21C [proellex],Liver enzymes,[4]; relatively high dosages,induction of liver enzymes
same,Effect on uterus fibroids,[5],significant shrinkage of uterus fibroids
same,Symptoms associated with uterus fibroids,[5],significant reduction in the symptoms
"CN(C)c1ccc([C@H]2C[C@]3(C)[C@@H](CC[C@]3(O)CCCO)[C@@H]3CCC4=CC(=O)CCC4=C32)cc1 [Onapristone, onapristone]",Liver function tests,"[4]; clinical studies, some patients",abnormalities in liver function tests were observed
CC#C[C@]1(O)CC[C@H]2[C@@H]3CCC4=CC(=O)CCC4=C3[C@@H](c3ccc(N(C)C)cc3)C[C@@]21C [mifepristone],Effect on uterus fibroids,[5],significant shrinkage of uterus fibroids
same,Symptoms associated with uterus fibroids,[5],significant reduction in the symptoms
"CC(C)(C)OC(=O)N1CCCN(Cc2ccc([C@H]3C[C@@]4(C)[C@@H](CC[C@@]4(O)C(F)(F)C(F)(F)F)[C@@H]4CCC5=CC(=O)CCC5=C43)cc2)CC1 [Example 6, tert-Butyl 4-{4-[(11β,17β)-17-hydroxy-3-oxo-17-(pentafluoroethyl)estra-4,9-dien-11-yl]benzyl}-1,4-diazepane-1-carboxylate]",IC50,[1],0.3 nM
same,IC50,[2],0.33 nM
"C[C@]12C[C@H](c3ccc(CN4CCOCC4)cc3)C3=C4CCC(=O)C=C4CC[C@H]3[C@@H]1CC[C@@]2(O)C(F)(F)C(F)(F)F [Example 7, (11β,17β)-17-Hydroxy-11-[4-(morpholin-4-ylmethyl)phenyl]-17-(pentafluoroethyl)estra-4,9-dien-3-one]",IC50,[1],0.1 nM
same,IC50,[2],0.1 nM
